US11932870B2, “Compositions and methods for immune cell modulation in adoptive immunotherapies” (Fate Therapeutics, Inc., priority 2016, dated 2024)

Assays:
Assay type in all cases: cell-based, human
viable CD8+ population = assay: T cell compound screen: CCR7+CD62L+ cells in the viable CD8+ population (flow cytometry); conditions: 10 μM, about 6 days, anti-CD3/anti-CD28 beads; hit = Z-score > +2 for percent or absolute number CCR7+CD62L+ in CD8+
Source text: In Vitro T Cell Culture. Fresh leukopaks (AllCells, Alameda, CA) were obtained from healthy donors, from which T cells were negatively selected using the EasySep Human T cell Enrichment Kit (Stem Cell Technologies, Vancouver, Canada). The freshly isolated T cells were aliquoted and cryopreserved. On the day the screens were initiated, T cells were thawed and washed into X-Vivo 15 with 5% human AB serum, IL-2, pen/strep, and additional supplements. Cells were dispensed into flat-bottom 384-well plates at 5×10^5 cells/ml with anti-CD3/anti-CD28 beads. Individual compounds were added at a final concentration of 10 μM to each well from column 3 to column 22 of each plate. Positive and negative controls were added to additional wells. Cells were incubated for about 6 days at 37 degrees with 5% CO2.
Flow Cytometry. On Day 6 of culture, cells were stained with a fixable viability marker and fluorophore-conjugated antibodies: CD3, CD4, CD8, CD45RA, CD45RO, CD62L, CCR7, CD27, and CD122 (BD Biosciences, San Jose, CA; and BioLegend, San Diego, CA). Fluorescent absolute counting beads (Spherotech, Lake Forest, IL) were added just prior to acquisition. Data acquisition was performed on a BD Fortessa X-20 (BD Biosciences) and data were analyzed using Treestar software (FlowJo, Ashland, OR) and Spotfire (Tibco, Boston, MA).
These cells are characterized by expression of CCR7 and CD62L. Therefore, cells co-expressing both of these identifying markers were evaluated. Within the viable CD4+ population and viable CD8+ population, the percent of cells co-expressing CCR7 and CD62L was determined. The expression of either CD62L or CCR7 on T cells, as indicative of the desired T cell subsets, have been described as having favorable functional characteristics for CAR-T cell therapy, and potentially other adoptive T cell therapies.
The number of events in each of these gates relative to the number of absolute counting beads in each sample was calculated, defining a measure of the absolute number of naïve, stem cell memory, or central memory T cells within the CD4+ and/or CD8+ populations. A z-Score relative to the screened compound samples within each 384-well plate was calculated for each of these four values: 1) percent CCR7+CD62L+in CD4+, 2) percent CCR7+CD62L+in CD8+, 3) absolute relative number of CCR7+CD62L+in CD4+, and 4) absolute number of CCR7+CD62L+in CD8+(FIGS. 1A and 1i). Z-scores were also calculated for the percent viability of all cells within each sample and the relative absolute number of cells within each sample. A “Z-Score” is a statistical measurement of a score's relationship to the mean in a group of scores. AZ-score of 0 means the score is the same as the mean. AZ-score can also be positive or negative, indicating whether it is above or below the mean and by how many standard deviations.

[1] = tested on: CD8 T cells transduced with CAR Construct 1; assay: Tcm phenotype skewing of CAR-T cells (CD62L, CCR7, CD27 surface expression); conditions: flow cytometry day 8
Procedure: (§1) Culturing cells in large-scale for phenotypic and exhaustion marker evaluation. Isolated CD8 T cells were activated in bulk on day 0 using anti-CD3/anti-CD28 beads in T cell media supplemented with IL-2. On day 1, cells were transduced with the CAR Construct and cell density was adjusted to 0.5×10^6/ml and 10^6 cells were seeded into 12-well plates in the presence of vehicle, TWS119, or DCC-2036. On day 4, cells were transferred into 6-well plates and 2 ml of T cell media was added to each well. On day 6 another 2 ml of media was added to each well. On day 8, CAR T cells were analyzed on a flow cytometer for surface expression of phenotypic markers (CD62L, CCR7, and CD27) and exhaustion markers (PD-1 and Tim-3).
To determine the effect of compound treatment on skewing towards a central memory phenotype, isolated CD8 T cells were activated in bulk on day 0 using anti-CD3/anti-CD28 beads in T cell media supplemented with IL-2. On day 1, cells were transduced with the CAR Construct 1 shown in FIG. 2 and cell density was adjusted to 0.5×10^6/ml and 10^6 cells were seeded into 12 well plates in the presence of vehicle (DMSO), TWS119 or DCC-2036 at the same concentrations. On day 4, cells were transferred into 6-well plates and 2 ml of media was added to each well. On day 6 another 2 ml of media was added to each well. On day 8, cells were analyzed on a flow cytometer for cell surface expression of CD27.
The expression of CD27 observed with vehicle treatment was defined as an MFI (mean fluorescence intensity) of 1 and the relative MFI of cells treated with compound was calculated.

CD8+ T cells = assay: RNA-Seq gene expression of memory T cell genes; conditions: DCC-2036 1 μM, TWS-119 10 μM, roughly 6 days, 5 donors, relative to vehicle, FIG. 5
Source text: To characterize the impact of DCC-2036 in memory cell skewing, gene expression changes for a panel of key genes, (i.e. CCR7, CD62L, etc.) previously known to be highly expressed in memory T cells were investigated. Cryopreserved CD8+ T cells from 5 different donors were thawed and washed into X-Vivo 15 with 5% human AB serum, IL-2, pen/strep, and additional supplements. Cells were dispensed into flat-bottom 384-well plates at 5×10^5 cells/ml with anti-CD3/anti-CD28 beads. Cells were either treated with DCC-2036 at a final concentration of 1 μM, TWS-119 at 10 μM, or received a vehicle (DMSO) only control treatment. Cells were incubated for roughly 6 days at 37 degrees Celsius with 5% CO2.
Post incubation, cells were lysed and RNA was isolated, fragmented and cDNA was generated in the presence of the appropriate sequencing adapters and sequencing was performed using Illumina next generation sequencing technology (NGS). RNA-Sequencing (RNA-Seq) utilizes the capabilities of NGS to not only acquire nucleotide sequence information, but also provide quantitative gene expression measurements from a given samples transcriptome. Gene transcripts were normalized to counts per million (CPM) reads per samples and relative quantitation of each gene transcript was determined for each in treatment relative to the matching vehicle control treated samples. […]

CD8 CAR-T cells = assay: Exhaustion marker expression (PD-1, Tim-3) on CD8 CAR-T cells
Procedure: as §1
To determine the effect of compound treatment of CAR-T cells on exhaustion marker expression, cells from three different donors were prepared and treated as described in the protocol above. PD-1 and Tim-3 expression was determined using flow cytometry. […] Tim-3 expression was reduced 2-fold with TWS119, and 3.7-fold with DCC-2036 treatment (FIG. 6A).

For `CNC(=O)c1cc(Oc2ccc(NC(=O)Nc3cc(C(C)(C)C)nn3-c3ccc4ncccc4c3)c(F)c2)ccn1` [DCC-2036, Rebastinib], the “CD8 Hit” value (viable CD8+ population) was “CD8”, the “increase in the frequency of CAR-T cells expressing both CD62L and CCR7” value ([1]; relative to vehicle (DMSO), FIG. 4A) was 2.3 fold and the “increase in the expression of the differentiation marker CD27 (relative MFI)” value ([1]; relative to vehicle (MFI defined as 1), FIG. 4B) was 2.2 fold. For the same compound, the “expression of key memory T cell genes (CCR7, CD62L etc.)” value (CD8+ T cells) was “increases in expression at levels similar to or greater than TWS-119”, the “expression of key memory T cell genes (CCR7, CD62L etc.)” value (CD8+ T cells; listed as DCC-2036 (FT-61314)) was “increased expression” and the “expression of T cell exhaustion marker Tim-3” value (CD8 CAR-T cells; CD8 T cells at one week post activation, relative to DMSO, FIG. 6A) was “reduced expression”. The “expression of T cell exhaustion marker PD-1” value (CD8 CAR-T cells; CD8 T cells at one week post activation, relative to DMSO, FIG. 6B) was “reduced expression”, the “reduction of Tim-3 expression” value (CD8 CAR-T cells; relative to vehicle, three donors, FIG. 6A) was 3.7 fold and the “decrease in PD-1 surface expression” value (CD8 CAR-T cells; relative to vehicle, three donors, FIG. 6B) was 4.5 fold.
